The target of one assay is Bcl-xL (Homo sapiens (Human), UniProt Q07817). Nature of the assay: Bcl-xL/Bim Fluorescence Resonance Energy Transfer Assay (FRET). Type of assay: binding. The essentials: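 IC50 values come from non-linear regression over an eleven-point compound titration. Each compound was first incubated with biotinylated Bcl-xL and Bim for 60 min at room temperature. FRET was then detected after a 30 min dark incubation with streptavidin-terbium.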

A further assay has as its target Bcl-2 (Homo sapiens (Human), UniProt P10415). Nature of the assay: Bcl-2/Bim Fluorescence Polarization Assay (FPA). Type of assay: binding.

20 compounds from patent US9346795B2, “Substituted sulfonamides useful as antiapoptotic Bcl inhibitors” (Bristol-Myers Squibb Company, priority 2011, dated 2016) can be followed below.

Sequence of Bcl-xL (Q07817 whole entry): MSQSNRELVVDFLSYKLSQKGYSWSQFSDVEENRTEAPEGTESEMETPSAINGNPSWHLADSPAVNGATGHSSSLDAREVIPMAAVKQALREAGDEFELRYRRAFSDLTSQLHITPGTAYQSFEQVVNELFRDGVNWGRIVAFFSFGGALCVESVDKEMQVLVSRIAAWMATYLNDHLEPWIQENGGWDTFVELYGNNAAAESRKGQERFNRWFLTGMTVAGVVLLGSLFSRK
Sequence of Bcl-2 (P10415 whole entry): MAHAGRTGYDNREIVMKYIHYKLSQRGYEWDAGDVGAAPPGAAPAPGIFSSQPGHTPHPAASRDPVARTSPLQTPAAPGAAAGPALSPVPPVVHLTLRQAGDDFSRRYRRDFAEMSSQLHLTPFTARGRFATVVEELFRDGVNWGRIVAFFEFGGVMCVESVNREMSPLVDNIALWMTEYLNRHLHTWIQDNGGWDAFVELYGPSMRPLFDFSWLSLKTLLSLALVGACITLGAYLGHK

With `CCCCN(C(=O)c1nn(-c2ccc(C(=O)NS(=O)(=O)c3ccc4c(Cl)ccc(Br)c4c3)cc2C(=O)N2CCc3ccccc3C2)c(C)c1Cl)c1cccc(-c2ccc(Cl)cc2)c1` [Example 217, 1-(4-(8-bromo-5-chloronaphthalen-2-ylsulfonylcarbamoyl)-2-(1,2,3,4-tetrahydroisoquinoline-2-carbonyl)phenyl)-N-butyl-4-chloro-N-(4′-chlorobiphenyl-3-yl)-5-methyl-1H-pyrazole-3-carboxamide], the IC50 against Bcl-xL is 70 nM; on Bcl-2, 10 nM.
On the same counts, the results for `CCCCN(C(=O)c1nn(-c2ccc(C(=O)NS(=O)(=O)c3ccc4c(Cl)ccc(Cl)c4c3)cc2C(=O)N2CCc3ccccc3C2)c(C)c1Cl)c1cccc(-c2ccc(Cl)cc2)c1` [Example 221, N-butyl-4-chloro-N-(4′-chlorobiphenyl-3-yl)-1-(4-(5,8-dichloronaphthalen-2-ylsulfonylcarbamoyl)-2-(1,2,3,4-tetrahydroisoquinoline-2-carbonyl)phenyl)-5-methyl-1H-pyrazole-3-carboxamide] are 40 nM and 40 nM.
On to `CCCCN(C(=O)c1nn(-c2ccc(C(=O)NS(=O)(=O)c3ccc4c(Cl)ccc(Cl)c4c3)cc2C(=O)N2CCc3ccccc3C2)c(C)c1Cl)c1cccc(-c2cccc(Cl)c2)c1` [Example 222, N-butyl-4-chloro-N-(3′-chlorobiphenyl-3-yl)-1-(4-(5,8-dichloronaphthalen-2-ylsulfonylcarbamoyl)-2-(1,2,3,4-tetrahydroisoquinoline-2-carbonyl)phenyl)-5-methyl-1H-pyrazole-3-carboxamide], for which the results for the IC50 against Bcl-xL and on Bcl-2 were 40 nM and 70 nM, respectively.
Turning to `CCCCc1c(-c2ccc(C(=O)NS(=O)(=O)c3ccc4ccccc4c3)cc2C(=O)N2CCc3ccccc3C2)c(C(=O)OCC)nn1-c1ccc(Oc2ccccc2)cc1` [Example 228, Ethyl 5-butyl-4-(4-(naphthalen-2-ylsulfonylcarbamoyl)-2-(1,2,3,4-tetrahydroisoquinoline-2-carbonyl)phenyl)-1-(4-phenoxyphenyl)-1H-pyrazole-3-carboxylate], the results for the IC50 at Bcl-xL and on Bcl-2 were 60 nM and 100 nM, respectively.
Consider `CCCCc1c(-c2ccc(C(=O)NS(=O)(=O)c3ccc4ccccc4c3)cc2C(=O)N2CCc3ccccc3C2)c(C(=O)OCC)nn1-c1ccc(Oc2cccc(Cl)c2)cc1` [Example 230, Ethyl 5-butyl-1-(4-(3-chlorophenoxy)phenyl)-4-(4-(naphthalen-2-ylsulfonylcarbamoyl)-2(1,2,3,4-tetrahydroisoquinoline-2-carbonyl)phenyl)-1H-pyrazole-3-carboxylate], for which the half-inhibitory concentration (IC50) is 60 nM on Bcl-xL and 20 nM against Bcl-2.
For `CCCCc1c(-c2ccc(C(=O)NS(=O)(=O)CC[Si](C)(C)C)cc2C(=O)N2CCc3ccccc3C2)c(C(=O)OCC)nn1-c1ccccc1` [Example 239, Ethyl 5-butyl-1-phenyl-4-(2-(1,2,3,4-tetrahydroisoquinoline-2-carbonyl)-4-(2-(trimethylsilyl)ethylsulfonylcarbamoyl)phenyl)-1H-pyrazole-3-carboxylate], the values for the IC50 against Bcl-xL and on Bcl-2 were 30 nM and 580 nM, respectively.
In the case of `CCCCc1c(-c2ccc(C(=O)NS(=O)(=O)c3ccc4ccccc4c3)cc2C(=O)N2CCc3ccccc3C2)c(CO)nn1-c1ccc(Oc2ccccc2)cc1` [Example 241, 4-(5-butyl-3-(hydroxymethyl)-1-(4-phenoxyphenyl)-1H-pyrazol-4-yl)-N-(naphthalen-2-ylsulfonyl)-3-(1,2,3,4-tetrahydroisoquinoline-2-carbonyl)benzamide], the results for the half-maximal inhibitory concentration (IC50) at Bcl-xL and on Bcl-2 were 30 nM and 130 nM, respectively.
Take `CCCCc1c(-c2ccc(C(=O)NS(=O)(=O)c3ccc4ccccc4c3)cc2C(=O)N2CCc3ccccc3C2)c(CO)nn1-c1ccc(Oc2ccc(Cl)cc2)cc1` [Example 242, 4-(5-butyl-1-(4-(4-chlorophenoxy)phenyl)-3-(hydroxymethyl)-1H-pyrazol-4-yl)-N-(naphthalen-2-ylsulfonyl)-3-(1,2,3,4-tetrahydroisoquinoline-2-carbonyl)benzamide]: the IC50 at Bcl-xL is 40 nM; against Bcl-2, 20 nM.
On to `CCCCc1c(-c2ccc(C(=O)NS(=O)(=O)c3ccc4ccccc4c3)cc2C(=O)N2CCc3ccccc3C2)c(CO)nn1-c1ccc(Oc2cccc(Cl)c2)cc1` [Example 243, 4-(5-butyl-1-(4-(3-chlorophenoxy)phenyl)-3-(hydroxymethyl)-1H-pyrazol-4-yl)-N-(naphthalen-2-ylsulfonyl)-3-(1,2,3,4-tetrahydroisoquinoline-2-carbonyl)benzamide], for which the values for the IC50 against Bcl-xL and on Bcl-2 were 20 nM and 7.83 nM, respectively.
For `CCCCc1c(-c2ccc(C(=O)NS(=O)(=O)c3ccc4ccccc4c3)cc2C(=O)N2CCc3ccccc3C2)c(CO)nn1-c1ccc(CCO)cc1` [Example 245, 4-(5-butyl-1-(4-(2-hydroxyethyl)phenyl)-3-(hydroxymethyl)-1H-pyrazol-4-yl)-N-(naphthalen-2-ylsulfonyl)-3-(1,2,3,4-tetrahydroisoquinoline-2-carbonyl)benzamide], in that order: 6.14 nM and 20 nM.
On the same counts, the results for `CCCCc1c(-c2ccc(C(=O)NS(=O)(=O)c3ccc4c(Cl)ccc(Br)c4c3)cc2C(=O)N2CCc3ccccc3C2)c(C(=O)OCC)nn1-c1ccc(Oc2cccc(Cl)c2)cc1` [Example 251, ethyl 4-(4-(8-bromo-5-chloronaphthalen-2-ylsulfonylcarbamoyl)-2-(1,2,3,4-tetrahydroisoquinoline-2-carbonyl)phenyl)-5-butyl-1-(4-(3-chlorophenoxy)phenyl)-1H-pyrazole-3-carboxylate] are 50 nM and 20 nM.
With `CCCCc1c(-c2ccc(C(=O)NS(=O)(=O)c3ccc4cccc(Cl)c4c3)cc2C(=O)N2CCc3ccccc3C2)c(CO)nn1-c1ccc(Oc2cccc(Cl)c2)cc1` [Example 252, 4-(5-butyl-1-(4-(3-chlorophenoxy)phenyl)-3-(hydroxymethyl)-1H-pyrazol-4-yl)-N-(8-chloronaphthalen-2-ylsulfonyl)-3-(1,2,3,4-tetrahydroisoquinoline-2-carbonyl)benzamide], the IC50 on Bcl-xL came to 10 nM; at Bcl-2, 6.37 nM.
On the same counts, the results for `CCCCc1c(-c2ccc(C(=O)NS(=O)(=O)c3ccc4ccccc4c3)cc2C(=O)N2Cc3ccccc3C[C@H]2CO)c(CO)nn1-c1ccccc1` [Example 260, 4-(5-Butyl-3-(hydroxymethyl)-1-phenyl-1H-pyrazol-4-yl)-3-((S)-3-(hydroxymethyl)-1,2,3,4-tetrahydroisoquinoline-2-carbonyl)-N-(naphthalen-2-ylsulfonyl)benzamide] are 8.01 nM and 10 nM.
With `CCCCN(CCCC)C(=O)c1cn(C)c(-c2ccc(C(=O)NS(=O)(=O)c3ccc4ccccc4c3)cc2C(=O)N2CCc3ccccc3C2)n1` [Example 264, N,N-Dibutyl-1-methyl-2-(4-(naphthalen-2-ylsulfonylcarbamoyl)-2-(1,2,3,4-tetrahydroisoquinoline-2-carbonyl)phenyl)-1H-imidazole-4-carboxamide], the results for the IC50 on Bcl-xL and on Bcl-2 were 40 nM and 110 nM, respectively.
Turning to `CCCCN(CCCC)C(=O)c1cn(CC(=O)NC)c(-c2ccc(C(=O)NS(=O)(=O)c3ccc4ccccc4c3)cc2C(=O)N2CCc3ccccc3C2)n1` [Example 265, N,N-Dibutyl-1-(2-(methylamino)-2-oxoethyl)-2-(4-(naphthalen-2-ylsulfonylcarbamoyl)-2-(1,2,3,4-tetrahydroisoquinoline-2-carbonyl)phenyl)-1H-imidazole-4-carboxamide], the IC50 at Bcl-xL is 70 nM; against Bcl-2 it was 430 nM.
Regarding `CCCCN(CCCC)C(=O)c1cn(CC(=O)O)c(-c2ccc(C(=O)NS(=O)(=O)c3cccc4ccccc34)cc2C(=O)N2CCc3ccccc3C2)n1` [Example 269, 2-(4-(Dibutylcarbamoyl)-2-(4-(naphthalen-1-ylsulfonylcarbamoyl)-2-(1,2,3,4-tetrahydroisoquinoline-2-carbonyl)phenyl)-1H-imidazol-1-yl)acetic acid], the IC50 worked out at 30 nM against Bcl-xL and 140 nM against Bcl-2.
As for `CCCCN(CCCC)C(=O)c1cn(C)c(-c2ccc(C(=O)NS(=O)(=O)c3ccc4cccc(I)c4c3)cc2C(=O)N2Cc3ccccc3C[C@H]2CN)n1` [Example 282, 2-(2-((S)-3-(Aminomethyl)-1,2,3,4-tetrahydroisoquinoline-2-carbonyl)-4-(8-iodonaphthalen-2-ylsulfonylcarbamoyl)phenyl)-N,N-dibutyl-1-methyl-1H-imidazole-4-carboxamide], the IC50 was found to be 10 nM against Bcl-xL and 6.97 nM against Bcl-2.
Take `CCCCN(CCCC)C(=O)c1cccc(-c2ccc(C(=O)NS(=O)(=O)c3ccc4ccccc4c3)cc2C(=O)N2CCc3ccccc3C2)n1` [Example 286, N,N-Dibutyl-6-(4-(naphthalen-2-ylsulfonylcarbamoyl)-2-(1,2,3,4-tetrahydroisoquinoline-2-carbonyl)phenyl)picolinamide]: the IC50 was determined as 70 nM against Bcl-xL and 600 nM on Bcl-2.
For `CCCCN(CCCC)c1ccc(Br)c(-c2ccc(C(=O)NS(=O)(=O)c3ccc4cccc(Cl)c4c3)cc2C(=O)N2CCc3ccccc3C2)n1` [Example 289, 4-(3-Bromo-6-(dibutylamino)pyridin-2-yl)-N-(8-chloronaphthalen-2-ylsulfonyl)-3-(1,2,3,4-tetrahydroisoquinoline-2-carbonyl)benzamide], in that order: 60 nM and 10 nM.
On the same counts, the results for `CCCCN(CCCC)c1ncc(Cl)c(-c2ccc(C(=O)NS(=O)(=O)c3ccc4ccccc4c3)cc2C(=O)N2Cc3ccccc3C[C@H]2CO)n1` [Example 315, 4-(5-Chloro-2-(dibutylamino)pyrimidin-4-yl)-3-((S)-3-(hydroxymethyl)-1,2,3,4-tetrahydroisoquinoline-2-carbonyl)-N-(naphthalen-2-ylsulfonyl)benzamide] are 80 nM and 60 nM.
